From patent US20260041690A1, “Treatment of Memory Loss with Phosphodiesterase Inhibitors” (Cyrano Therapeutics, Inc., priority 2023, published 2026)

Assays:
[1] = system: memory loss associated with sleep deprivation; assay: Treatment of memory loss associated with sleep deprivation in a subject; format: in vivo; details: nasal spray, effective dose 3× daily in each naris
From the text: A subject is admitted to a clinic for a memory loss associated with sleep deprivation. The subject is prescribed a roflumilast composition in a nasal spray device described herein. The subject administers the nasal spray in an effective dose 3× daily in each naris. The nasal spray is characterized by a spray containing a D50 of about 15 μm to about 24 μm, a D90 of from about 30 μm to about […] and where less than about 3% of the droplets in the plume of a spray have a size of less than about 10 μm.

[2] = cited from earlier work

Compound	memory retention after administration [1]	solubility of theophylline in ethanol ([2]; in ethanol) [mg/mL]	solubility of theophylline in water ([2]; in water) [mg/mL]
O=C(Nc1c(Cl)cncc1Cl)c1ccc(OC(F)F)c(OCC2CC2)c1 [roflumilast]	improved memory retention		
Cn1c(=O)c2[nH]cnc2n(C)c1=O [theophylline]		14 to 15	7 to 8
